The values that follow come from ChEMBL document CHEMBL1143968, “Lead identification of acetylcholinesterase inhibitors-histamine H3 receptor antagonists from molecular modeling” (Bioorg Med Chem, 2008).

For orientation: IC50 means the concentration that gives 50% inhibition.

In assay [1] the target is Acetylcholinesterase (Homo sapiens, UniProt P22303). The experiment in a line: Inhibition of AChE.
Assay [2] has as its target Histamine H3 receptor (Homo sapiens, UniProt Q9Y5N1). The experiment in a line: Inhibition of histamine H3 receptor.

Acetylcholinesterase, sequence (P22303 whole entry): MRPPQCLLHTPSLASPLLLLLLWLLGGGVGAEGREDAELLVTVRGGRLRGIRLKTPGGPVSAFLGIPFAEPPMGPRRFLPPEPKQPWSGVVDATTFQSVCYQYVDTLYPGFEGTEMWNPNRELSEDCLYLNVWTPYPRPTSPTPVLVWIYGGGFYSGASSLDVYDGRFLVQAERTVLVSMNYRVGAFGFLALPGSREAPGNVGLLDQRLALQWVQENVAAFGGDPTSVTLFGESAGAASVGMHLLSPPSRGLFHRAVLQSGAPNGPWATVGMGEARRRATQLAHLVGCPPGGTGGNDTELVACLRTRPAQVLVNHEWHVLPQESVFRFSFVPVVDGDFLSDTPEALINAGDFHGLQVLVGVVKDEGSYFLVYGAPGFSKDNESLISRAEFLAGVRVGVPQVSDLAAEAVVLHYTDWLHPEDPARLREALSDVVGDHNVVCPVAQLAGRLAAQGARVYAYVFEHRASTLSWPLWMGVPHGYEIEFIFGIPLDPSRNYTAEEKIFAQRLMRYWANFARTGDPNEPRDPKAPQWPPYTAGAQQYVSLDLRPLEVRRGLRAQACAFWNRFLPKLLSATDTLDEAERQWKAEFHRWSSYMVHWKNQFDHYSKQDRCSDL
Histamine H3 receptor, sequence (Q9Y5N1 whole entry): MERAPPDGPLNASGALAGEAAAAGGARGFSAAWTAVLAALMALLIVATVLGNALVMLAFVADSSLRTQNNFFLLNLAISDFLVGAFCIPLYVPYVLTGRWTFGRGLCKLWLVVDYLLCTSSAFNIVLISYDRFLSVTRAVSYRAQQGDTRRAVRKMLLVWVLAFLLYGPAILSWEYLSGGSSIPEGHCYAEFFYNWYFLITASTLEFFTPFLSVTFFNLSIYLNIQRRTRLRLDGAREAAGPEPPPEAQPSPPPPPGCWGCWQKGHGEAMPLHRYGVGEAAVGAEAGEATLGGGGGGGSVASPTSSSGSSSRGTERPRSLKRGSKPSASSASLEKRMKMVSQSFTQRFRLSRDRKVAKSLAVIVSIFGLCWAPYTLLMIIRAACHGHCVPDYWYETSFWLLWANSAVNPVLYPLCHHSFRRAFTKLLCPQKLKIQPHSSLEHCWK

In turn, `c1cc(OCCCN2CCCCC2)ccc1CN1CCCCC1` [JNJ-5207852] came in with an IC50 in assay [1] of 3200 nM.

Turning to `OCCC1CCN(Cc2ccc(OCCCN3CCCCC3)cc2)CC1`, the figures for the IC50 in assay [2] and in assay [1] were 0.98 nM and 350 nM, respectively.

Regarding `OC1CCN(Cc2ccc(OCCCN3CCCCC3)cc2)CC1`, the values for the IC50 in assay [2] and in assay [1] were 0.72 nM and 2300 nM, respectively.

`C[N+](C)(C)CCCCCCCCCC[N+](C)(C)C` [DECAMETHONIUM]: the values for the IC50 in assay [2] and in assay [1] were 820 nM and 5900 nM, respectively.

Consider `OCC1CCN(Cc2ccc(OCCCN3CCCCC3)cc2)CC1`, for which the IC50 in assay [2] amounted to 1.3 nM; in assay [1], 1100 nM.

Take `COc1cc2c(cc1OC)C(=O)C(CC1CCN(Cc3ccccc3)CC1)C2` (stereo not given) [DONEPEZIL]: half-maximal inhibition in assay [2] (IC50) required 350 nM. This lies in the sub-micromolar range.
